Patent publication US7312339B2, “Polyene oxazoles and processes for their preparation” (Thallion Pharmaceuticals Inc., priority 2003, dated 2007)

Key:
[1] = system: MDA-MD-231 (breast/human); test: In vitro cytotoxicity (MTT cell survival), MDA-MD-231; assay type: cell-based; conditions: MDA-MD-231, 96 h exposure; for IC50: Homo sapiens, mean from 3 independent experiments
Protocol: (§1) Cells were passaged two to three times per week. Cellular viability was examined by staining with trypan blue and only flasks where cell viability was >95% were used to determine cytotxicity.
(§2) Exponentially growing cells (1-3×10^3 cells per 100 μl) were seeded in 96-well plates and incubated for 16 h. Cells were then exposed continuously to various concentrations of compounds of Formula I in serum-supplemented medium. Cell survival was evaluated 96 h later by replacing the culture media with 150 μl fresh medium containing 10 mM 4-(2-hydroxyethyl)-1-piperazineethanesulfonic acid buffer, pH 7.4. Next, 50 μl of 2.5 mg/ml of 3-(4,5-dimethylthiazo-2-yl)-2,5-diphenyltetrazolium bromide (MTT; Sigma, St. Louis, Mo.) in phosphate buffer solution, pH 7.4, was added. After 3-4 h of incubation at 37° C., the medium and MTT was removed, and 200 μl of dimethylsulfoxide was added to dissolve the precipitate of reduced MTT followed by addition of 25 μl glycine buffer (0.1 M glycine plus 0.1 M NaCl, pH 10.5). The absorbance was determined at 570 nm with a microplate reader (BIORAD). Cell survival was estimated as % of cells treated with the vehicle alone.

HCT116 (colon/human) = test: In vitro cytotoxicity (MTT cell survival), HCT116; assay type: cell-based; conditions: for In Vitro Cytotoxicity Data (Log M): HCT116, 96 h exposure; for IC50: Homo sapiens, HCT-116, HCT116, 96 h exposure, mean from 3 independent experiments
Protocol: as §1, §2

PC3 (prostate/human) = test: In vitro cytotoxicity (MTT cell survival), PC3; assay type: cell-based; conditions: PC3, 96 h exposure; for IC50: Homo sapiens, mean from 3 independent experiments
Protocol: as §1, §2

A498 (renal/human) = test: In vitro cytotoxicity (MTT cell survival), A498; assay type: cell-based; conditions: A498, 96 h exposure; for IC50: Homo sapiens, mean from 3 independent experiments
Protocol: as §1, §2

P388 (leukemia/mouse) = test: In vitro cytotoxicity (MTT cell survival), P388; assay type: cell-based; conditions: P388, 96 h exposure; for IC50: Mus musculus
Protocol: as §1, §2

EKVX (lung/human) = test: In vitro cytotoxicity (MTT cell survival), EKVX; assay type: cell-based; conditions: 96 h exposure; for IC50: Homo sapiens
Protocol: as §1, §2

B16 (melanoma/mouse) = test: In vitro cytotoxicity (MTT cell survival), B16; assay type: cell-based; conditions: B16, 96 h exposure; for IC50: Mus musculus
Protocol: as §1, §2

T24 (bladder/human) = test: In vitro cytotoxicity (MTT cell survival), T24; assay type: cell-based; conditions: T24, 96 h exposure; for IC50: Homo sapiens
Protocol: as §1, §2

[2] = system: SF-295 (glioblastoma/human); test: In vitro cytotoxicity (MTT cell survival), SF-295; assay type: cell-based; conditions: SF-295, 96 h exposure; for IC50: Homo sapiens
Protocol: as §1, §2

[3] = In vitro cytotoxicity (MTT cell survival), HRE; assay type: cell-based, human; conditions: human, HRE normal renal cells, 96 h exposure
Protocol: as §1, §2

[4] = system: HRE (renal/normal, human); test: In vitro cytotoxicity (MTT cell survival), HRE; assay type: cell-based; conditions: HRE normal renal cells, 96 h exposure
Protocol: as §1, §2

SMILES	IC50 [1] [µM]	In Vitro Cytotoxicity Data (Log M) [1]	In Vitro Cytotoxicity Data (Log M) (HCT116 (colon/human))	IC50 (HCT116 (colon/human)) [µM]	IC50 (PC3 (prostate/human)) [µM]	In Vitro Cytotoxicity Data (Log M) (PC3 (prostate/human))	In Vitro Cytotoxicity Data (Log M) (A498 (renal/human))	IC50 (A498 (renal/human)) [µM]	IC50 (P388 (leukemia/mouse)) [µM]	In Vitro Cytotoxicity Data (Log M) (P388 (leukemia/mouse))	In Vitro Cytotoxicity Data (Log M) (EKVX (lung/human))	IC50 (EKVX (lung/human)) [µM]	In Vitro Cytotoxicity Data (Log M) (B16 (melanoma/mouse))	IC50 (B16 (melanoma/mouse)) [µM]	IC50 (T24 (bladder/human)) [µM]	In Vitro Cytotoxicity Data (Log M) (T24 (bladder/human))	IC50 [2] [µM]	In Vitro Cytotoxicity Data (Log M) [2]	IC50 at 96 h [3] [µM]	In Vitro Cytotoxicity Data (Log M) [4]
COC(=O)C(C(C)OC)N(C)C(=O)C1(N(O)C(=O)/C=C/C=C/C=C/C=C\CNC(=O)C(C)(C)C(O)\C(C)=C/C=C\C=C\Cc2cnco2)COCO1 (stereo not shown) [Compound 1]	12.9	(Log −4.88 M) Log M	(Log −4.60 M) Log M	24.8	20.7	(Log −4.69 M) Log M	(Log −4.78 M) Log M	15.6	6.3	(Log −5.19 M) Log M	(Log −4.42 M) Log M	37.4	(Log −4.34 M) Log M	44.8	30.5	(Log −4.51 M) Log M	27.1	(Log −4.56 M) Log M	8.8	(Log −5.05 M) Log M
COC(=O)C(C(C)OC)N(C)C(=O)C1(N(O)C(=O)/C=C/C=C/C=C/C=C\CNC(=O)C(C)(C)C(O)\C(C)=C/C=C\C=C\Cc2cnc(C)o2)COCO1 (stereo not shown) [Compound 2]	13.2	(Log −4.88 M) Log M	(Log −4.56 M) Log M	27.5	20.7	(Log −4.67 M) Log M	(Log −4.88 M) Log M	13.1	8.1	(Log −5.05 M) Log M	(Log −4.62 M) Log M	23.9	(Log −4.34 M) Log M	45.5	18.9	(Log −4.72 M) Log M	17.5	(Log −4.75 M) Log M	20.2	(Log −4.69 M) Log M
